Data reported in ChEMBL document CHEMBL5046296 (J Med Chem, 2022).
In brackets after ≈: the same amount, converted by molar mass.

Columns and labels:
[1] = Apparent elimination half life in dog at 2 mg/kg, iv; format: ADME, organism-based, Canis lupus familiaris; conditions: in vivo, read-out: betat1/2(app) (converted)
[2] = target: Serine/threonine-protein kinase LATS2 (Homo sapiens, UniProt Q9NRM7); assay: Inhibition of LATS2 (unknown origin)
Cytochrome P450 3A4 [3] = target: T1, Cytochrome P450 3A4 (Homo sapiens, UniProt P08684); assay: Time dependent inhibition of CYP3A4 (unknown origin) using BSF as substrate measured at 5 mins; format: ADME
Aorta = assay: Cardiotoxicity in rat aortic ring assessed as relaxation of phenylephrine induced aortic ring contraction at 10 uM incubated for 1 hr; format: toxicity, tissue-based; set-up: scale not given: the % may be the effect or the level left
[4] = Drug concentration in Sprague-Dawley rat spinal cord with CCI induced thermal hyperalgesia at 1 mg/kg, po measured at 5.75 hrs post dose; format: ADME, organism-based; conditions: read-out: Ct
Cytochrome P450 2C19 = Cytochrome P450 2C19 (Homo sapiens, UniProt P33261); assay: Inhibition of CYP2C19 (unknown origin); format: ADME
[5] = target: AP2-associated protein kinase 1 (Homo sapiens, UniProt Q2M2I8); assay: Inhibition of GST-Xa tagged human AAK1 (30 to 330 residues) expresssed in bacteria using (5-FAM)-Aha-KEEQSQITSQVTGQIGWR-NH2 peptide as substrate incubated for 3 hrs in presence of ATP by electrophoretic analysis
[6] = Oral bioavailability in mouse at 3 mg/kg; format: ADME, organism-based; conditions: in vivo
[7] = Drug uptake in Spinal cord of CCI induced thermal hyperalgesia Sprague-Dawley rat model assessed as spinal occupancy at 0.3 mg/kg, po measured at 5.75 hrs post dose in presence of [3H]BMT-046091; format: ADME, organism-based; conditions: in vivo
Cytochrome P450 3A4 [8] = target: T1, Cytochrome P450 3A4; assay: Time dependent inhibition of CYP3A4 (unknown origin) using TST as substrate measured at 30 mins; format: ADME
[9] = Ratio of drug concentration in spinal cord to plasma of overnight fasted Sprague-Dawley rat model with streptozotocin induced diabetic peripheral neuropathic mechanical allodynia at 1 mg/kg, po measured at 5.5 hrs post dose; format: ADME, organism-based
[10] = Protein binding in mouse plasma assessed as unbound fraction at 10 uM measured after 5 hrs by LC-MS/MS analysis; format: ADME, cell-free
[11] = AUC (infinity) in monkey at 3 mg/kg, po; format: ADME, organism-based, Macaca mulatta; set-up: route oral, time infinity, dose 3 mg/kg; conditions: rhesus monkey, in vivo
[12] = Ratio of drug concentration in spinal cord to plasma in Sprague-Dawley rat at 3 mg/kg, po measured at 5.25 hrs post dose; format: ADME, organism-based
[13] = target: Solute carrier family 22 member 6 (Homo sapiens, UniProt Q4U2R8); assay: Inhibition of OAT1 (unknown origin)
[14] = target: Organic anion transporter 3 (Homo sapiens, UniProt Q8TCC7); assay: Inhibition of OAT3 (unknown origin)
[15] = target: Voltage-gated inwardly rectifying potassium channel KCNH2 (Homo sapiens, UniProt Q12809); assay: Inhibition of human ERG by patch clamp assay; format: toxicity
[16] = Permeability across basolateral to apical side in human Caco-2 cells at 3 uM measured after 2 hrs by LC-MS/MS analysis; format: ADME, cell-based; conditions: read-out: permeability
[17] = Drug concentration in overnight fasted Sprague-Dawley rat spinal cord with streptozotocin induced diabetic peripheral neuropathic mechanical allodynia at 3 mg/kg, po measured at 5.5 hrs post dose; format: ADME, organism-based; conditions: read-out: Ct
Cytochrome P450 1A2 = Cytochrome P450 1A2 (Homo sapiens, UniProt P05177); assay: Inhibition of CYP1A2 (unknown origin); format: ADME
[18] = AUC (infinity) in mouse at 3 mg/kg, po; format: ADME, organism-based; set-up: time infinity, route oral, dose 3 mg/kg; conditions: in vivo
[19] = Solubility of the compound in citrate at pH 4.4 using crystalline form of sample; format: physicochemical
[20] = Drug concentration in naive Sprague-Dawley rat spinal cord at 3 mg/kg, po measured at 5.25 hrs post dose; format: ADME, organism-based; conditions: read-out: Ct
Rattus norvegicus [21] = assay: Analgesic activity in CCI induced thermal hyperalgesia in Sprague-Dawley rat assessed as reversal of thermal hyperalgesia by measuring reduction in paw withdrawal latency at 0.3 mg/kg, po measured after 5.5 hrs by Hargreaves test relative to control; format: functional; set-up: scale not given: the % may be the effect or the level left
[22] = Apparent elimination half life in monkey at 2 mg/kg, iv; format: ADME, organism-based, Macaca mulatta; conditions: rhesus monkey, in vivo, read-out: betat1/2(app) (converted)
[23] = Oral bioavailability in monkey at 3 mg/kg; format: ADME, organism-based, Macaca mulatta; conditions: rhesus monkey, in vivo
Rattus norvegicus [24] = assay: Analgesic activity in streptozotocin induced diabetic peripheral neuropathic mechanical allodynia in overnight fasted Sprague-Dawley rat model assessed as efficacy at 3 mg/kg, po measured at 5.5 hrs post dose; format: functional
Rattus norvegicus [25] = assay: Analgesic activity in CCI induced thermal hyperalgesia Sprague-Dawley rat model assessed as efficacy at 1 mg/kg, po measured at 5.75 hrs post dose; format: functional
Cytochrome P450 2C9 = Cytochrome P450 2C9 (Homo sapiens, UniProt P11712); assay: Inhibition of CYP2C9 (unknown origin); format: ADME
[26] = Metabolic stability in rat liver microsomes assessed as half life; format: ADME, Microsome
[27] = Ratio of drug concentration in spinal cord to plasma in Sprague-Dawley rat at 10 mg/kg, po measured at 5.25 hrs post dose; format: ADME, organism-based
[28] = Drug concentration in Sprague-Dawley rat spinal cord with CCI induced thermal hyperalgesia at 0.1 mg/kg, po measured at 5.75 hrs post dose; format: ADME, organism-based; conditions: read-out: Ct
[29] = Drug concentration in overnight fasted Sprague-Dawley rat spinal cord with streptozotocin induced diabetic peripheral neuropathic mechanical allodynia at 1 mg/kg, po measured at 5.5 hrs post dose; format: ADME, organism-based; conditions: read-out: Ct
[30] = Ratio of drug concentration in spinal cord to plasma in CCI induced thermal hyperalgesia Sprague-Dawley rat model at 1 mg/kg, po measured at 5.75 hrs post dose; format: ADME, organism-based
[31] = Cmax in overnight fasted Sprague-Dawley rat plasma with streptozotocin induced diabetic peripheral neuropathic mechanical allodynia at 3 mg/kg, po measured at 5.5 hrs post dose; format: ADME, organism-based; set-up: route oral, time 5.5 hrs, dose 3 mg/kg
[32] = Cmax in Sprague-Dawley rat plasma with CCI induced thermal hyperalgesia at 1 mg/kg, po measured at 5.75 hrs post dose; format: ADME, organism-based; set-up: route oral, dose 1 mg/kg, time 5.75 hrs
[33] = AUC (infinity) in monkey at 2 mg/kg, iv; format: ADME, organism-based, Macaca mulatta; set-up: time infinity, route intravenous, dose 2 mg/kg; conditions: rhesus monkey, in vivo
[34] = Protein binding in dog plasma assessed as unbound fraction at 10 uM incubated for 5 hrs by LC-MS/MS analysis; format: ADME, cell-free, Canis lupus familiaris
[35] = Oral bioavailability in rat at 3 mg/kg; format: ADME, organism-based; conditions: in vivo
[36] = AUC (infinity) in mouse at 2 mg/kg, iv; format: ADME, organism-based; set-up: time infinity, route intravenous, dose 2 mg/kg; conditions: in vivo
[37] = Ratio of drug concentration in spinal cord to plasma in CCI induced thermal hyperalgesia Sprague-Dawley rat model at 0.3 mg/kg, po measured at 5.75 hrs post dose; format: ADME, organism-based
Rattus norvegicus [38] = assay: Analgesic activity in streptozotocin induced diabetic peripheral neuropathic mechanical allodynia in overnight fasted Sprague-Dawley rat model assessed as reduction in pain response at 0.3 mg/kg, po measured after 5.5 hrs post treatment; format: functional; set-up: scale not given: the % may be the effect or the level left
Homo sapiens = species on record: Homo sapiens; assay: Inhibition of sodium channel (unknown origin) at 10 uM at 4 Hz electrophysiological method relative to control
[39] = Solubility of the compound in acetate at pH 4.6 using crystalline form of sample; format: physicochemical
[40] = Cmax in mouse at 3 mg/kg, po; format: ADME, organism-based; set-up: route oral, dose 3 mg/kg; conditions: in vivo
[41] = target: Broad substrate specificity ATP-binding cassette transporter ABCG2 (Homo sapiens, UniProt Q9UNQ0); assay: Inhibition of BCRP (unknown origin)
Broad substrate specificity ATP-binding cassette transporter ABCG2, sequence (Q9UNQ0 whole entry): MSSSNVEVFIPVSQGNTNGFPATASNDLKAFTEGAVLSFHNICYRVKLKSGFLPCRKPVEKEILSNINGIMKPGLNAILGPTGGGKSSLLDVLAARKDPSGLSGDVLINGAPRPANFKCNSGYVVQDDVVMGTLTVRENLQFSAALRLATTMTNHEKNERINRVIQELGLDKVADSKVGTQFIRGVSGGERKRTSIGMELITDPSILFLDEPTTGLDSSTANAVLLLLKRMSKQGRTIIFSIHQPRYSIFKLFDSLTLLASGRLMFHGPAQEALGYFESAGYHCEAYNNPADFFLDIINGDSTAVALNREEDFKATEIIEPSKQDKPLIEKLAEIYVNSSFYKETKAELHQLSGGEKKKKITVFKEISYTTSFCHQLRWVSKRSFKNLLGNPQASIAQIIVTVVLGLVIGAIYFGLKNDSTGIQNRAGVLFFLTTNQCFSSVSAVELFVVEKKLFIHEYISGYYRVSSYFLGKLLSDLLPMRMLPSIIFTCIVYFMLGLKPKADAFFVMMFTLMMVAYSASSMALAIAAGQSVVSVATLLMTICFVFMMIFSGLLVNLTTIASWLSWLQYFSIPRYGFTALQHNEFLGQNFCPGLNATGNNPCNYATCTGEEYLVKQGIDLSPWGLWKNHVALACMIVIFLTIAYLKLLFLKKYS

T1 sequence (P08684 whole entry): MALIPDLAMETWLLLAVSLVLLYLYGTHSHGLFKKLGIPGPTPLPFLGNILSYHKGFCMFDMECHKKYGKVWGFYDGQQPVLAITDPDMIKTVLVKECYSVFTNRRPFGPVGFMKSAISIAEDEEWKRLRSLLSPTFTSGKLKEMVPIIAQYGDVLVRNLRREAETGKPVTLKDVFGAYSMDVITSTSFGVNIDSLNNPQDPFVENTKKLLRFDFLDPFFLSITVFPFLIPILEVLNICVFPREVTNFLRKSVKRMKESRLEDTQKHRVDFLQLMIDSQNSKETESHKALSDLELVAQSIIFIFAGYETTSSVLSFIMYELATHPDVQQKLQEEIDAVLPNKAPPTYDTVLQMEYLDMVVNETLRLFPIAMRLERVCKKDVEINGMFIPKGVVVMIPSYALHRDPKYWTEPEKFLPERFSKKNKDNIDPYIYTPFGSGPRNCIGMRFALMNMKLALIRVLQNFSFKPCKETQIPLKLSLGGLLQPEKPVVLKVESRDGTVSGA
Cytochrome P450 2C9, sequence (P11712 whole entry): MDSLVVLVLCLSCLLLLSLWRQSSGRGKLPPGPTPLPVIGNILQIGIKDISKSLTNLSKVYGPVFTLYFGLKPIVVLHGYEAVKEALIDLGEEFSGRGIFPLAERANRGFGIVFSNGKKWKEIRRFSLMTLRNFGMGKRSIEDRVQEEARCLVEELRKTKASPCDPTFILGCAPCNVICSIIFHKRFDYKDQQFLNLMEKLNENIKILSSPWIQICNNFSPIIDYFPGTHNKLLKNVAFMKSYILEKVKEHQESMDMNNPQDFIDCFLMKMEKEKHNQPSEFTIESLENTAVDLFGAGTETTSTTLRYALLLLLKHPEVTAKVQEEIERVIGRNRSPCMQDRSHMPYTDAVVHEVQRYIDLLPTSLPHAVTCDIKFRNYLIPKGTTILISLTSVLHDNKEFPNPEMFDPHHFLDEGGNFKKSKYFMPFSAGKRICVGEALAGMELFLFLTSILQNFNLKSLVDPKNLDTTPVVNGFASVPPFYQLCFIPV
Solute carrier family 22 member 6, sequence (Q4U2R8 whole entry): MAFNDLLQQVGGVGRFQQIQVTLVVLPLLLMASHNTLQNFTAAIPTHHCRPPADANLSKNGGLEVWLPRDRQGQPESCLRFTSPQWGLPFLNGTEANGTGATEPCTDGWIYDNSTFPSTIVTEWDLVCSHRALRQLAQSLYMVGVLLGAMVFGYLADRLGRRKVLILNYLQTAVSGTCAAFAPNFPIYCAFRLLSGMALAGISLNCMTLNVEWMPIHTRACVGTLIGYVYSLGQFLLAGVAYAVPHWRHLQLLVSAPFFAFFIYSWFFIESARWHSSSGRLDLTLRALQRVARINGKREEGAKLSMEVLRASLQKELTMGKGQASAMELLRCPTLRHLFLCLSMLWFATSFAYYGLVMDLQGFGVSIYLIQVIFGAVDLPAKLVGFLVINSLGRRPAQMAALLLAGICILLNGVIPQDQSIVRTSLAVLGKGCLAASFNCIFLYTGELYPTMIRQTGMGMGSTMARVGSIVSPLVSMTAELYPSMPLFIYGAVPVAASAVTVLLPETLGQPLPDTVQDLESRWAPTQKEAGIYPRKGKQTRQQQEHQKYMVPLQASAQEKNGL
Serine/threonine-protein kinase LATS2, sequence (Q9NRM7 whole entry): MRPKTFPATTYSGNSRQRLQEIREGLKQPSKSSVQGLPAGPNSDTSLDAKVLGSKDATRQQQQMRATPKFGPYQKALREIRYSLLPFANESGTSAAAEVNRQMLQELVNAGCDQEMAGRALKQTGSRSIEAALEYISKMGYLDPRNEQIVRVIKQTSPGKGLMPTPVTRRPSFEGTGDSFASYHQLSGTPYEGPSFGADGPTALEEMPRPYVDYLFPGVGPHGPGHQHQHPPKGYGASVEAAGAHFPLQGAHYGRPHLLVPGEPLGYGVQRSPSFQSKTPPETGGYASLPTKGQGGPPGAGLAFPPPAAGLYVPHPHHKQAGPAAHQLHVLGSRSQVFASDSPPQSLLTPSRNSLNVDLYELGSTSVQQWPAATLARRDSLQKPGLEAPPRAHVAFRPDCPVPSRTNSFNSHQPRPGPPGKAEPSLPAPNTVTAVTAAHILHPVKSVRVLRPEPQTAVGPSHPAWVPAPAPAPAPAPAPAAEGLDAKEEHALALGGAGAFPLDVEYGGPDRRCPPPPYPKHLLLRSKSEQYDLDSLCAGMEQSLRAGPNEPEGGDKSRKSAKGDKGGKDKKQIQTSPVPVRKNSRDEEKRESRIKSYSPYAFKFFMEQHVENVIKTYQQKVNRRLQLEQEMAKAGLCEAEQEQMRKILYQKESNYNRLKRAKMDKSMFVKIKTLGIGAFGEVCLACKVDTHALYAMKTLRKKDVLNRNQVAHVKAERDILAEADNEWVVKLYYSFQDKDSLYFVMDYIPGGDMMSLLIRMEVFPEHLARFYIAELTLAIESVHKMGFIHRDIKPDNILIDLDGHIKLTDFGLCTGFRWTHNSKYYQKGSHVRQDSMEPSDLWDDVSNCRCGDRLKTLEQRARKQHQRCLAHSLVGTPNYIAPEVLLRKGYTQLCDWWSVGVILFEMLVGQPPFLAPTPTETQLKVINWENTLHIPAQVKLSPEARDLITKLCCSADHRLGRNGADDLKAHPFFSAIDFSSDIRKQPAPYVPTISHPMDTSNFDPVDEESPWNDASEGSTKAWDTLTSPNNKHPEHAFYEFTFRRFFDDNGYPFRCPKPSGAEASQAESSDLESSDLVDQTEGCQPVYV
Cytochrome P450 1A2, sequence (P05177 whole entry): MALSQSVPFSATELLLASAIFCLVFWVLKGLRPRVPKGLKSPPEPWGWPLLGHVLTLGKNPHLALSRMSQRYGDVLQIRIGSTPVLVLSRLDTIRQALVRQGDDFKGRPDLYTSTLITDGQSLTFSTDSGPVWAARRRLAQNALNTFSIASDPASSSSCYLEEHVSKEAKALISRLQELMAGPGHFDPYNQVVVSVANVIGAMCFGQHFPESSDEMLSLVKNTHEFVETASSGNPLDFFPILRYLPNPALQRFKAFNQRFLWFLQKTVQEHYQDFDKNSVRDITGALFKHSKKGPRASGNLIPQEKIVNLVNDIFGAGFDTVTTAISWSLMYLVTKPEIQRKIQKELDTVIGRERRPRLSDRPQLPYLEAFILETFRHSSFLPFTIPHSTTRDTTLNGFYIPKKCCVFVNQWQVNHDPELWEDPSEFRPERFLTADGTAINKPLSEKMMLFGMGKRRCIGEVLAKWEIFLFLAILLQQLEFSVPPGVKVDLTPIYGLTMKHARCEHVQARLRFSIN
AP2-associated protein kinase 1, sequence (Q2M2I8 whole entry, the tested form may be a part): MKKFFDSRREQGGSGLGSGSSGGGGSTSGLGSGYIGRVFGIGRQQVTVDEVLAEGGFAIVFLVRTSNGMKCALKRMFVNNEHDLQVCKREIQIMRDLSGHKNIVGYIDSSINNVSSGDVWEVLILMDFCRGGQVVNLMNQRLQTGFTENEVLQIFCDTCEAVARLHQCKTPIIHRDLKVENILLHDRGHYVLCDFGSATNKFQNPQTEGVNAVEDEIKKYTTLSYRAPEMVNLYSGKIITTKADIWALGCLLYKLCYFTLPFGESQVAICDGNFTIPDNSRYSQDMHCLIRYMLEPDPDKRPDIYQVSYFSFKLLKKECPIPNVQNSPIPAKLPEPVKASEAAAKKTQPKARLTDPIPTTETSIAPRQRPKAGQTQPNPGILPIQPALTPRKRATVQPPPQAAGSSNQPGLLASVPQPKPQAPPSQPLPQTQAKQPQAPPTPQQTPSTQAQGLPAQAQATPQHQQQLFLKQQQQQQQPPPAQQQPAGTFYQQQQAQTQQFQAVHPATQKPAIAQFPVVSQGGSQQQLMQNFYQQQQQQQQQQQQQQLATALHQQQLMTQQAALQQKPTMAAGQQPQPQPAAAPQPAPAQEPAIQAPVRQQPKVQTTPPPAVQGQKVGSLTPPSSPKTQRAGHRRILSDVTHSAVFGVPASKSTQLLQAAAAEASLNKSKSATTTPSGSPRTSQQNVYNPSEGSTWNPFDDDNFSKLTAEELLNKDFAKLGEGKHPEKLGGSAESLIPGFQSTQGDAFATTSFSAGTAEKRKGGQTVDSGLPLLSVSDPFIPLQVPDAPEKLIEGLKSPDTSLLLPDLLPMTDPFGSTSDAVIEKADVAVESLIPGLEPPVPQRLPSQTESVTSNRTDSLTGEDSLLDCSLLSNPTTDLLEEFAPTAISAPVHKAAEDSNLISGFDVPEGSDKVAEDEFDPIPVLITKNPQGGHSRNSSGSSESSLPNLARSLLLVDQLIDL

- half-life [1]: 4.8 h
- IC50 [2]: 0.66 µM
- IC50 (Cytochrome P450 3A4 [3]): > 20 µM
- concentration at 5.75 h [4]: 1220 nM
- IC50 (Cytochrome P450 2C19): > 20 µM
- IC50 [5]: 0.002 µM
- bioavailability [6]: 100%
- Occ [7]: 83%
- IC50 (Cytochrome P450 3A4 [8]): > 40 µM
- Kp at 5.5 h [9]: 9
- fraction unbound at 5 h, 10 µM [10]: 0.046
- AUC(0-inf) [11]: 270 ng·h/mL
- Kp at 5.25 h [12]: 19
- IC50 [13]: > 30 µM
- IC50 [14]: > 30 µM
- Papp B→A at 2 h, 3 µM [16]: 13.8 ×10⁻⁶ cm/s
- concentration at 5.5 h [17]: 2370 nM
- IC50 (Cytochrome P450 1A2): > 20 µM
- AUC(0-inf) [18]: 5780 ng·h/mL
- solubility [19]: 1400 µg/mL (≈ 3.63 mM)
- concentration at 5.25 h [20]: 3860 nM
- half-life [22]: 5.7 h
- bioavailability [23]: 11%
- IC50 (Cytochrome P450 2C9): > 20 µM
- half-life [26]: > 2 h
- Kp at 5.25 h [27]: 21
- concentration at 5.75 h [28]: 214 nM
- concentration at 5.5 h [29]: 852 nM
- Kp at 5.75 h [30]: 19
- Cmax [31]: 366 nM
- Cmax [32]: 63 nM
- AUC(0-inf) [33]: 980 ng·h/mL
- fraction unbound at 5 h, 10 µM [34]: 0.04
- bioavailability [35]: 50%
- AUC(0-inf) [36]: 6710 ng·h/mL
- Kp at 5.75 h [37]: 23
- inhibition (Homo sapiens): 61%
- solubility thermodynamic [39]: > 10000 µg/mL
- Cmax [40]: 260 ng/mL
- IC50 [41]: 5.4 µM
SMILES: CC(C)C[C@](C)(N)COc1ccc(-c2ccnc(C(F)F)c2)nc1C(F)F [PILAVAPADIN]
- Activity (Aorta): 42%
- IC50 [15]: 1.4 µM
- Activity (Rattus norvegicus [21]): 25%
- Efficacy (Rattus norvegicus [24]): 63%
- Efficacy (Rattus norvegicus [25]): 97%
- Activity (Rattus norvegicus [38]): 20%
